Experimental data: US11401243B2, “Quinoline derived small molecule inhibitors of nicotinamide N-methyltransferase (NNMT) and uses thereof” (priority 2017, dated 2022)
Where “and” joins values, the source holds several entries; their conditions need not be identical. Identical values can stand only once.

Legend:
[1] = test system: NNMT activity in 3T3-L1 pre-adipocytes and differentiated adipocytes; assay: Quantitative measurement of NNMT reaction product 1-MNA in cultured cells (LC/MS/MS); format: cell-based; settings: for intracellular levels of 1-MNA: 30 μM
Description: Differentiation of 3T3-L1 pre-adipocytes. […] Briefly, standard culture media was supplemented with scheduled addition of adipogenic agents [3-isobutyl-1methyl xanthine (IBMX), Sigma Aldrich; MO, USA), dexamethasone (Sigma Aldrich; MO, USA), insulin (Gibco Life Technologies Inc.; Grand Island, N.Y., USA)] over 10 days to promote differentiation of 3T3-L1 fibroblasts into adipocytes; a combination of 1 mM IBMX, 1 μM dexamethasone, and 10 μg/ml of insulin in media were added to fully confluent 3T3-L1 fibroblasts for three days (days 0-3) to initiate differentiation. At day 3, the media was replaced with culture media supplemented with insulin (10 μg/ml). After day 6, cells were maintained in culture media until described experiments were begun (days 8-10).
Cellular 1-MNA concentrations were determined using an ultra-sensitive high-resolution AB Sciex 6500 Q-trap mass spectrometer coupled to an Agilent 1260 ultra-high pressure liquid chromatography (LC/MS/MS) system. Using multiple reaction monitoring (MRM) positive ion mode, the 1-MNA NNMT reaction product was quantified from peak area ratios using AB Sciex Analyst and MultiQuant 2.1 software and the parent precursor and Q3 masses set to m/z 137.1 and 94.1, respectively. Fragment ions at m/z of 92.1 and 77.9 were additionally used for the detection and confirmation of 1-MNA, respectively. […]. To determine the effect of NNMT inhibitor on NNMT activity in the pre-adipocytes and differentiated adipocytes (8×10^4 cells/well seeded prior to beginning differentiation), cells were treated with 30 μM inhibitor for 24 h. Similarly, to compare the relative effects of multiple NNMT inhibitors on NNMT activity in cultured adipocytes, differentiated adipocytes in 6-well plates were treated with 10 μM test compound for 24 h. Following treatment, media was replaced with 80% (v/v) methanol (cooled to −80° C.) containing 500 nmol 6-chloronicotinamide (6-CN) as an internal standard (IS) to extract cellular metabolites. Adherent cells were scrapped, then centrifuged at 4° C. and 13000 g for 15 min, and the resulting supernatants processed using established protocols. […]. Data were subsequently normalized to the IS peak area and transformed as % control values for cross-sample comparisons. […] Choice of inhibitor concentrations and time period was chosen based on the results from the MTT studies.

[2] = molecular target: T1, recombinant human COMT enzyme (Homo sapiens, UniProt P21964); assay: COMT activity assay (radiometric); format: biochemical; settings: maximal tested concentration 600 μM
T1 construct: Reaction Biology Corporation (ran the assay)
T1 sequence (P21964 1-271): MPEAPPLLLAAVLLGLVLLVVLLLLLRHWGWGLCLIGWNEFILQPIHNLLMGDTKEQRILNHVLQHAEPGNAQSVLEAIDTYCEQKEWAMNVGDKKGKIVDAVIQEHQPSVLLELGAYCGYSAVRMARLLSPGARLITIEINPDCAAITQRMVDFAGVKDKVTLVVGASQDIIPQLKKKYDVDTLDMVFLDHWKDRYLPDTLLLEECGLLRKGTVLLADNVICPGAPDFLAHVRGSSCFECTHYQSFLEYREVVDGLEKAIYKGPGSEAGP

[3] = test system: diet-induced obese (DIO) mice; format: in vivo
Description: 17-week old, male DIO C57Bl/6 mice that have been fed high-fat diet (HFD) for 11 weeks (starting at week 6) were purchased from Jackson Labs (Jackson Laboratory; Bar Harbour, Me., USA). Mice were initially group housed (three/cage) and allowed to acclimate to the colony environment maintained at a constant temperature (21-23° C.) and humidity (40-50%) on a 12-hour light-dark cycle (lights on 0600-1800 h). Upon arrival, mice were continued to be fed HFD (Open Source Diets formula D12451 from Research Diets Inc.; New Brunswick, N.J., USA), containing 45% energy from fat. Water was available ad libitum.
All experiments were carried out in accordance with the Guide for the Care and Use of Laboratory Animals and with approval from the Institutional Animal Care and Use Committee at the University of Texas Medical Branch. Following acclimation for seven days, mice were single-housed and maintained on HFD for 4 additional weeks. Mice were intermittently handled, with body weights and food intake (hopper weights) measured 2-3 times per week. […] Mice in the vehicle cohort received three subcutaneous (SC) saline (1 ml/kg) injections/day (˜0930, 1330, 1730 h) and mice in the treatment cohort received three SC injections of the NNMT inhibitor 5-amino-1MQ at a dose of 20 mg/kg/injection for a total dose of […] of the parent compound (calculated according to free weight) for 11 days. […] Body weight and food intake were measured every other day. On day 12, mice were subjected to a 4 h fast period, then deeply anesthetized using isoflurane and trunk blood was collected by decapitation. Plasma was separated from every sample and the samples were submitted to Texas A&M Veterinary Medical Diagnostic Laboratory (TVMDL; College Station, Tex., USA) for plasma lipid-panel measurements (total cholesterol and triglycerides). Triglycerides values were not included for analysis since the measurements were confounded by sample hemolysis that interfered with the triglyceride reagent in the assay. Epididymal fat pads (epididymal white adipose tissue; EWAT) were excised from every mouse, weighed, and fixed in 10% buffered formalin for further processing.
Formalin-fixed EWAT samples were paraffin embedded, sectioned ([…]), and stained with hematoxylin and eosin (H&E). Images were obtained at 20× magnification using a light microscope (Leica DM LB) and digitally photographed for automated image analysis. Images were analyzed using the “Adiposoft” plug-in software in ImageJ (NIH). […]. Minimum and maximum diameter parameters were assigned to identify appropriate cells for the automated adipocyte area calculations, and cells along the boundary of the images were excluded from analyses. Three to five images/sample were analyzed, with automated analysis confirmed by visual inspection. Images corresponding to each sample were averaged to obtain the mean adipocyte area (μm2) per sample and combined to calculate group mean values for control (vehicle-treated EWAT samples) and treatment (NNMT inhibitor-treated EWAT samples) cohorts.

human NNMT (mt-hNNMT) = molecular target: T2, human NNMT (mt-hNNMT) (Homo sapiens, UniProt P40261, E101A/E103A/K100A); assay: NNMT activity assay (HPLC-UV detection of MNA), NNMT IC50 curves; settings: NNMT IC50
T2 sequence (P40261 1-261 K100A/E101A/E103A limits assumed): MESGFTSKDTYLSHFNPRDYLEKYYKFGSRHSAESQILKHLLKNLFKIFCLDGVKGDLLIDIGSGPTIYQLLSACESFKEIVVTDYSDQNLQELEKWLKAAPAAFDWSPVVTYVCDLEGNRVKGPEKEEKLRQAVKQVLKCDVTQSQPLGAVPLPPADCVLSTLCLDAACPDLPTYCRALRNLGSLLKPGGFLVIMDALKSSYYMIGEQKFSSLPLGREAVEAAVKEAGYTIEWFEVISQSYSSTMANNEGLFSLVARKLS

[4] = DIO mice, 20 mg/kg SC t.i.d., 11 days

With C[n+]1cccc2c(N)cccc21 [1j, 5-amino-1-methylquinolin-1-ium iodide] the “1-MNA levels in differentiated adipocytes relative to control” value ([1]; 10 μM, 24 h) was “significantly decreased”, the EC50 ([1]; Mus musculus, 3T3-L1, 24 h, 0.3-60 μM, 3-parameter sigmoidal fit, read-out: EC50 for inhibition of NNMT (intracellular 1-MNA) in fully differentiated adipocytes) was 2300 nM and the “intracellular levels of 1-MNA” value ([1]; adipocytes, 24 h) was “significant reduction”. For the same molecule, the “relative intracellular 1-MNA levels, % of level in untreated adipocytes” value ([1]; inhibitor concentrations 10-60 μM) was ~40%, the “intracellular levels of 1-MNA” value ([1]; pre-adipocytes, 24 h) was “significant reduction” and the inhibition at 600 µM [2] was 10%. The “decrease in mass of EWAT compared with control DIO mice” value [3, 4] was ~35%, the “total cumulative food intake” value [3, 4] was 26.2 ± 1.4 g and the “weight loss at end of treatment” value [3, 4] was 2.0 ± 0.6 g. For the same molecule, the “weight loss from baseline measures” value [3, 4] was ~5.1%, the “body weight over treatment period compared to controls (in words)” value ([3]; DIO mice, 20 mg/kg SC three times daily, 11 days) was “progressive loss of body weight” and the “decrease in adipocyte size compared to control DIO mice” value ([3]; EWAT histology, 20 mg/kg SC t.i.d., 11 days) was > 30%. For the same molecule, the “decrease in adipocyte volume compared to control DIO mice” value ([3]; EWAT histology, data not shown) was > 40%, the “tolerability in dose escalation study” value ([3]; mouse, in vivo, 60 mg/kg/day) was “well tolerated with no observable adverse effects” and the “total cholesterol levels lower relative to control DIO mice” value ([3]; plasma, 4 h fast, day 12) was ~30%. For the same molecule, the IC50 (human NNMT (mt-hNNMT)) was 1200 nM and ~1000 nM.
